Experimental data reported in patent publication US8426616B2, “Triptolide lactone ring derivatives as immunomodulators and anticancer agents” (priority 2004, dated 2013).
“Also recorded” adds a separate entry of the source.

What was measured:
[1] = system: IL-2 production in Jurkat cells; type: cell-based, human; conditions: for inhibition of IL-2 production: Jurkat cells stimulated with anti-CD3 and PMA, 24 h; for inhibition of IL-2 production, compound incubated in human serum: pre-incubation in human serum
Protocol: Test samples were diluted to 1 mM in complete tissue culture medium. […] Cells from an exponentially expanding culture of Jurkat human T cell line (#TIB-152 obtained from American Type Culture Collection, Manassas, Va.) were harvested, washed once by centrifugation, re-suspended in complete tissue culture medium, and diluted to a concentration of 2×10^6 cells/ml. A volume of 50 μl of Jurkat cells (1×10^5 cells) was added to wells containing 100 μl of the diluted compounds, 50 μl of PMA (10 ng/ml) was added to each well, and the plates were incubated at 37° C. in a 5% CO2 incubator. After 24 hours, the plates were centrifuged to pellet the cells, 150 μl of supernatant was removed from each well, and the samples were stored at −20° C. The stored supernatants were analyzed for human IL-2 concentration using the Luminex 100 (Luminex Corporation, Austin, Tex.), Luminex microspheres coupled with anti-IL-2 capture antibody, and fluorochrome-coupled anti-IL-2 detection antibody. The data were expressed as pg/ml of IL-2.
The data were plotted as the concentration of compound versus IL-2 concentration. In this case, data is provided for both compounds incubated in human serum and in mouse serum, and for PG796 without incubation.

[2] = system: human T cell lymphoma (Jurkat) cells; conditions: for cytotoxic activity (MTT assay, OD570): 24 h culture with compound; for cytotoxic activity (MTT assay), compound incubated in human serum: pre-incubation in human serum
Protocol: Test compounds were dissolved in DMSO at a concentration of 20 mM. Further dilutions were done in RPMI1640 medium (GIBCO, Rockville, Md.) supplemented with 10% Fetal Calf Serum (HyClone Laboratories, Logan, Utah).
Cytotoxicity of the compounds was determined in a standard MTT assay using Cell Proliferation Kit I (#1 465 007, Roche Diagnostics, Mannheim, Germany). Briefly, human T cell lymphoma (Jurkat) cells (4×10^5 per well) were cultured for 24 h, in 96-well tissue culture plates, in the presence of serial three-fold dilutions of test compounds or medium containing the same concentration of DMSO as in the test samples at each dilution point. The cultures were then supplemented with 10 μl/well MTT reagent for 4 h and then with 0.1 ml/well solubilizing reagent for an additional 16 h. Optical density at 570 nm (OD570) was measured on a ThermoScan microplate reader (Molecular Devices, Menlo Park, Calif.).
The data is presented as OD570 values versus concentration of the compounds. In this case, data is provided for both compounds incubated in human serum and in mouse serum, and for PG796 without incubation.

Structure (SMILES) | inhibition of IL-2 production [1] | inhibition of IL-2 production, compound incubated in human serum ([1]; Jurkat cells) | inhibition of IL-2 production, compound incubated in mouse serum ([1]; Jurkat cells, pre-incubation in mouse serum) | inhibition of IL-2 production, compound unincubated ([1]; Jurkat cells, without serum incubation, compared with serum-incubated compound) | cytotoxic activity (MTT assay, OD570) [2] | cytotoxic activity (MTT assay), compound incubated in human serum [2] | cytotoxic activity (MTT assay), compound incubated in mouse serum ([2]; pre-incubation in mouse serum) | cytotoxic activity (MTT assay), compound unincubated ([2]; without serum incubation, compared with serum-incubated compound)
CC(C)[C@]12O[C@H]1[C@@H]1O[C@]13[C@]1(O[C@H]1C[C@H]1c4c(C(=O)c5ccccc5)oc(OC(=O)c5ccccc5)c4CC[C@@]13C)[C@@H]2O [PG796, 18-deoxo-19-dehydro-18-benzoyloxy-19-benzoyl triptolide] | higher level of activity in both assays than the known prodrug, triptolide 14-succinate; also recorded: inhibited IL-2 production | high, and essentially equivalent, activity | high, and essentially equivalent, activity | nearly equivalent activity | cytotoxic to Jurkat cells; also recorded: higher level of activity in both assays than the known prodrug, triptolide 14-succinate | high, and essentially equivalent, activity | high, and essentially equivalent, activity | nearly equivalent activity
CC(C)[C@]12O[C@H]1[C@@H]1O[C@]13[C@]1(O[C@H]1C[C@H]1C4=C(CC[C@@]13C)C(=O)OC4)[C@@H]2OC(=O)CCC(=O)O [triptolide 14-succinate, reference compound] |  | much less active in these assays than triptolide 14-succinate incubated in mouse serum |  |  |  | much less active in these assays than triptolide 14-succinate incubated in mouse serum |  | 
CC1OC(=O)C2=C1[C@@H]1C[C@@H]3O[C@@]34[C@H](O)[C@@]3(C(C)C)O[C@H]3[C@@H]3O[C@@]34[C@@]1(C)CC2 (stereo partly drawn) [PG795, 19-methyl triptolide] | significant activity; also recorded: less active than triptolide; also recorded: inhibited IL-2 production |  |  |  | cytotoxic to Jurkat cells; also recorded: significant activity; also recorded: less active than triptolide |  |  | 
